Source: patent publication US20110269807A1, “NOVEL TREATMENT FOR AGE RELATED MACULAR DEGENERATION AND OCULAR ISCHEMIC DISEASE ASSOCIATED WITH COMPLEMENT ACTIVATION BY TARGETING 5-LIPOXYGENASE” (ALLERGAN, INC., priority 2010, published 2011)
“Also recorded” adds a separate entry of the source.

How the values were obtained:
5-lipoxygenase = molecular target: T1, 5-lipoxygenase (Homo sapiens, UniProt P09917); details: read-out: known I.C.50 inhibition of 5-lipoxygenase; Cho et al., J Med Chem 1991; cited from earlier work
T1 sequence (P09917 1-674): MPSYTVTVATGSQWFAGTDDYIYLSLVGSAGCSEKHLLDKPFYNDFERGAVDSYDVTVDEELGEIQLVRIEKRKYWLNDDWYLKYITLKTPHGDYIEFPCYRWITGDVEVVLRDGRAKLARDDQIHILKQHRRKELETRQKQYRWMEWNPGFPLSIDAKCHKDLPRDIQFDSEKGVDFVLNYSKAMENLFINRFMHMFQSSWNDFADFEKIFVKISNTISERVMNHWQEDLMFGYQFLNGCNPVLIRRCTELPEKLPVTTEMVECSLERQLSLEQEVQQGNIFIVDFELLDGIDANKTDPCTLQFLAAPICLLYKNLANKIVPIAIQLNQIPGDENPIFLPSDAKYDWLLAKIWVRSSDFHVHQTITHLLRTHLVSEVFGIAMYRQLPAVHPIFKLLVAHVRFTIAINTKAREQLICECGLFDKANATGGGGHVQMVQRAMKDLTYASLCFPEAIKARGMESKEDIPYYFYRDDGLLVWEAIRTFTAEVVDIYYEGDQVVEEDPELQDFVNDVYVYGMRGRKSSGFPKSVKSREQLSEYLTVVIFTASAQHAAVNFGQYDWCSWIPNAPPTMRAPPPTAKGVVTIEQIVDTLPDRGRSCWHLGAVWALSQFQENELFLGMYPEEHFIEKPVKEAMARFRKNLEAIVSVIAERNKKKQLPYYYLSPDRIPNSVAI

ARPE-19 cells [1] = assay: Complement mediated cell death assay on RPE cells in the context of oxidative stress (cell protection assay, NIH clinical collection library screen); assay type: cell-based; details: for protection against cell death mediated by complement attack and oxidative stress: versus vehicle (DMSO)
Protocol: ARPE-19 cells were plated at sub confluence in 96 well culture plates and cultured 24 to 48 hrs. The cells were then treated with 1:1000 dilution of each compound from the NIH clinical collection library overnight. The following day culture media was collected and set aside. The cells were washed and then treated with 0.77 mM H2O2 in hanks buffered saline solution (HBSS) for 90 minutes in the presence of fresh compound from NIH clinical collection library at a 1:1000 dilution. Cells were then washed and primed with a solution of HBSS containing 24% S-58 for 30 minutes. After the priming step cells were washed and then treated with 6% C1q deficient human serum in the original cell culture supernatant collected prior to H2O2 treatment. 90 minutes after addition of the human serum cells were labeled with the membrane impermeant nuclear dye SYTOX® orange and the number of positive cells determined. This count was then used to determine level of cell death. Quantitation and imaging were accomplished by capturing a single field per objective using a 10× objective and then counting the number of positive nuclei using metamorph image analysis software. Data was collected and expressed as % protection relative to wells containing vehicle alone (DMSO).
Data was collected and the level of protection by each compound determined by averaging the results of two independent experiments. FIG. 4 is the distribution of results indexed to compound plate (y-axis) and Protection (x-axis). […] FIG. 5 contains a list of compounds with protective properties. Of the 17 compounds selected, six compounds (Zeranol, Penciclovir, Rifapentine, Rifaximin, calcitrol, 3-[3,5-DIBROMO-4-HYDROXYBENZOYL]-2-ETHYLBENZOFURAN) were deemed to function as anti-oxidants in the assay. Of the remaining 11 compounds, four fall into a single class associated with modulation of the arachidonic acid pathway. This included Zileuton, Zafirlukast, Montelukast, and Loxoprofen. […] The targeting was both direct at 5-lipoxygenase (Zileuton) and indirect at the leukotiene receptor (Zafirlukast, Montelukast).
The observation that inhibition of 5-lipoxygenase is protective against the combined effects of oxidative stress and complement attack in ARPE-19 cells prompted us to test the 5 lipoxygenase activating protein inhibitor MK886 for its ability to protect ARPE-19 cells from oxidative stress and complement attack in vitro. The cell protection assay was carried out essentially as described in Examples 1-4.
In addition to the MK886 inhibitor we also evaluated other know 5-lipoxygenase inhibitors, including 2-TEDC and monocyclin, for their ability to protect ARPE-19 cells against oxidative stress and complement attack, using the cell protection assay described in Examples 1-4.

ARPE-19 cells [2] = assay: Oxidative stress followed by challenge with complement, cell death; assay type: cell-based; details: then challenge with complement
Description: Oxidative stress and complement activation are the two most highly cited factors associated with occurrence and progression of AMD. To examine functional consequences of this relationship we treated ARPE-19 cells with either H2O2 or t-BH followed by challenge with complement. […] FACS analysis of ARPE-19 after treatment with t-Bh or H2O2 indicated minimal impact in expression levels (FIG. 3B).

Balb/c mice [3] = assay: Blue light induced retinal damage, outer nuclear layer histology scoring; assay type: in vivo; details: 1 mg/Kg PO BID 14 days; blue light 4800 lux 8 hours
Protocol: Balb/c mice were dosed orally (PO) at 1 mg/Kg starting 16 hours prior to blue light, and then BID for the next 14 days. Control animal received an equivalent volume of vehicle (0.5% Avicel R-91 and 0.1% Tween-80 in dH2O) to compound treated animals.
Animals were first dark adapted for 16 hours prior to blue light. Animals were then exposed to blue light at 4800 lux for 8 hours. Animals were then moved to normal housing conditions.
Eyes were immersion fixed over night at room temperature in Davidson's Fix special (BBC Biochemical, Mt Vernon, Wash.), dehydrated for 1 hr in 50% EtOH at room temperature, and then placed into 70% EtOH at room temperature. Eyes were stored in 70% EtOH until subjected to automated paraffin processing. After processing, eyes were embedded in paraffin, sectioned on a rotary microtome at 5 μm thickness through the optic nerve head parallel to the vertical meridian, and mounted on glass slides. Sections were baked onto slides, subjected to automated H&E staining, and coverslipped using permanent mounting medium. Stained tissue sections were then examined by an observed blinded to treatment regiments and scored to determine the level of damage to the outer nuclear layer.

Balb/c mice [4] = assay: Blue light induced retinal damage, ERG; assay type: in vivo; details: 1 mg/Kg PO BID 14 days; ERG 2 weeks post blue light; p<0.05
Description: To further explore the protective effects of inhibition of the 5-lipoxygenase pathway, we examined the ability of 5-lipoxygenase inhibition in two in vivo models. The first in vivo model was a model of retinal oxidative stress induced by intravitreal injection of Paraquat in SOD1−/+ animals (Dong, A., et al., Superoxide dismutase 1 protects retinal cells from oxidative damage. J Cell Physiol, 2006. 208(3): p. 516-26). In addition to elevation of oxidative stress Paraquat is also known to induce activation of complement (Sun, S., et al. (2011 Mar. 18) “Complement Inhibition Alleviates Paraquat-Induced Acute Lung Injury” Am J Respir Cell Mol Biol. EPub), allowing us to examine effects of oxidative stress and complement activation in vivo similar to that observed in the in vitro RPE assay, above. The second in vivo model in which we examined the effects of 5-lipoxygenase inhibition was a rodent light induced retinal degeneration model. […]
The ERG was performed 2 weeks post blue light (4 days post OCT to allow for cataracts to clear). […] The ERG was then recorded with the animal on a heating pad (takes 7-8 minutes). Animals were revived by administration of 0.5 mg/kg atipamezole (injected i.p.), returned to their cages, and warmed using a heating pad and monitored until awake.

N#C/C(=C\c1ccc(O)c(O)c1)C(=O)OCCc1cccs1 [2-TEDC]
IC50 (5-lipoxygenase): 90 nM | IC50 (ARPE-19 cells [1]; Homo sapiens, FIG. 7, read-out: I.C.50 of blocking cell death within the assay system): 100 nM | activity at the known I.C. 50 for 12 lipoxygenase (ARPE-19 cells [1]; concentration = known I.C.50 for 12 lipoxygenase): little activity | protection at the known I.C.50 for 15 lox (ARPE-19 cells [1]; concentration = known I.C.50 for 15 lox): ~100% | protection against cell death mediated by complement attack and oxidative stress (ARPE-19 cells [1]): dose dependently protected; also recorded: dose dependent protection

OO [H2O2]
increase in cell death (ARPE-19 cells [2]): > 10 fold

CC(C)c1ccc2c(c1)c(SC(C)(C)C)c(CC(C)(C)C(=O)[O-])n2Cc1ccc(Cl)cc1.[Na+] [MK886, 1-[(4-chlorophenyl)methyl]-3-[(1,1-dimethylethyl)thio]-α,α-dimethyl-5-(1-methylethyl)-1H-indole-2-propanoic acid, sodium salt]
protection against cell death mediated by complement attack and oxidative stress (ARPE-19 cells [1]; sodium salt): dose dependently protected; also recorded: protects; also recorded: effectively blocked cell death in a dose dependent manner

c1ccc2c(c1)SCc1c-2[nH]c2ccccc12 [PD146176, 6,11-dihydro-[1]benzothiopyrano[4,3-b]indol]
protection against cell death mediated by complement attack and oxidative stress (ARPE-19 cells [1]): no protection; also recorded: no protective activity

Cn1nccc1-c1ccc(Sc2cccc(C3(C(N)=O)CCOCC3)c2)cc1 [PF-4191834, 4-(3-(4-(1-Methyl-1H-pyrazol-5-yl)phenylthio)phenyl)-tetrahydro-2H-pyran-4-carboxamide]
retinal structure / outer nuclear layer thickness (Balb/c mice [3]): protected retinal structure and preserved photoreceptors | protection against loss of retinal ERG A-wave amplitude (Balb/c mice [4]): protected against the loss of ERG A-wave amplitude; also recorded: protected against functional loss

CC(C)(C)OO [t-BH]
increase in cell death (ARPE-19 cells [2]): 20-30%
